These results are taken from US9862713B2, “Substituted bicyclic heteroaryl compounds as RXR agonists” (CONNEXIOS LIFE SCIENCES PVT. LTD., priority 2014, dated 2018).

This assay has as its system hRXR α, β, or γ. Briefly: Transactivation assay (RARE-Luc dual luciferase reporter in HEK-293 cells), activity relative to LG268. It is filed as cell-based, human. Particulars: 24 h, luciferase activity expressed relative to LG268; for Activity at 1 µM: compound at 1 µM. The procedure:
HEK-293 cells (ATCC) were seeded one day prior to transfection. For assessing EC50 of activation of RXR isoforms 2 μg of hRXR α, β, or γ (OriGENE, USA) over-expressing vector, 1 μg of plasmid expressing firefly luciferase under RARE element (RARE-Luc) and 25 ng of renilla luciferase vector (QIAGEN, USA) were co-transfected using lipofectamine reagent. Post 24 h of transfection, cells were treated with different concentrations of RXR agonists (100 nM, 300 nM and 1 uM) for 24 h followed by estimation of luciferase activity using Dual Luciferase Reporter Assay System (Promega). Luciferase activity was normalized to that of renilla luciferase. The activities of the RXR compounds were expressed relative to LG268, a known RXR agonist.
On the technique in general: Reporter assays use an easily measured gene product as a stand-in for the process of interest.

Turning to `Cc1c(N(C)c2ccc(C(=O)O)cn2)sc2c1C(C)(C)CCC2` [Compound 26, 6-[Methyl(3,4,4-trimethyl-4,5,6,7-tetrahydro-1-benzothiophen-2-yl)amino]pyridine-3-carboxylic acid], the “Activity at 1 µM” value is “* (<0.7)”.

In the case of `CCN(c1ccc(C(=O)O)cc1)c1cc2c(s1)C(C)(C)CCC2(C)C` [Compound 27, 4-[Ethyl(4,4,7,7-tetramethyl-4,5,6,7-tetrahydro-1-benzothiophen-2-yl)amino]benzoic acid], the “Activity at 1 µM” value is given as “***** (>1)”.

For the compound `Cc1c(-n2nnc3cc(C(=O)O)ccc32)sc2c1C(C)(C)CCC2(C)C` [Compound 28, 1-(3,4,4,7,7-Pentamethyl-4,5,6,7-tetrahydro-1-benzothiophen-2-yl)-1H-benzotriazole-5-carboxylic acid], the “Activity at 1 µM” value is given as “* (<0.7)”.

Take `Cc1c(/C=C/c2ccc(C(=O)O)cc2)sc2c1C(C)(C)CCC2(C)C` [Compound 29, 4-[(E)-2-(3,4,4,7,7-Pentamethyl-4,5,6,7-tetrahydro-1-benzothiophen-2-yl)ethenyl]benzoic acid]: the “Activity at 1 µM” value is given as “***** (>1)”.

As for `Cc1c(/C=C\c2ccc(C(=O)O)cc2)sc2c1C(C)(C)CCC2(C)C` [Compound 30, 4-[(Z)-2-(3,4,4,7,7-Pentamethyl-4,5,6,7-tetrahydro-1-benzothiophen-2-yl)ethenyl]benzoic acid], the “Activity at 1 µM” value is recorded as “***** (>1)”.

On to `Cc1c(C2CC2c2ccc(C(=O)O)cc2)sc2c1C(C)(C)CCC2(C)C` (stereo not shown) [Compound 31, 4-[2-(3,4,4,7,7-Pentamethyl-4,5,6,7-tetrahydro-1-benzothiophen-2-yl)cyclopropyl]benzoic acid], for which the “Activity at 1 µM” value was “** (>0.7 and <0.8)”.

For `CCn1c(-c2ccc(C(=O)O)cc2)ccc1-c1sc2c(c1C)C(C)(C)CCC2(C)C` [Compound 32, 4-[1-Ethyl-5-(3,4,4,7,7-pentamethyl-4,5,6,7-tetrahydro-1-benzothiophen-2-yl)-1H-pyrrol-2-yl]benzoic acid], the “Activity at 1 µM” value is “* (<0.7)”.

As for `CN(c1ccc(C(=O)O)cc1)c1nc2c(s1)C(C)(C)CCC2(C)C` [Compound 33, 4-[Methyl(4,4,7,7-tetramethyl-4,5,6,7-tetrahydro-1,3-benzothiazol-2-yl)amino]benzoic acid], the “Activity at 1 µM” value was “*** (>0.8 and <0.9)”.

In the case of `CN(c1ccc(C(=O)O)cc1)c1nc2c(s1)C(C)(C)C=CC2(C)C` [Compound 34, 4-[Methyl(4,4,7,7-tetramethyl-4,7-dihydro-1,3-benzothiazol-2-yl)amino]benzoic acid], the “Activity at 1 µM” value is “** (>0.7 and <0.8)”.

As to `CCOC1CC(C)(C)c2sc(N(C)c3ccc(C(=O)O)cc3)nc2C1(C)C` (stereo not shown) [Compound 35, 4-[(5-Ethoxy-4,4,7,7-tetramethyl-4,5,6,7-tetrahydro-1,3-benzothiazol-2-yl)(methyl)amino]benzoic acid], the “Activity at 1 µM” value is “*** (>0.8 and <0.9)”.

With `CC1(C)CCC(C)(C)c2sc(N(c3ccc(C(=O)O)cc3)C3CC3)nc21` [Compound 36, 4-[Cyclopropyl(4,4,7,7-tetramethyl-4,5,6,7-tetrahydro-1,3-benzothiazol-2-yl)amino]benzoic acid], the “Activity at 1 µM” value was “***** (>1)”.

On to `CC1(C)CCC(C)(C)c2sc(N(c3ccc(C(=O)O)cn3)C3CC3)nc21` [Compound 37, 6-[Cyclopropyl(4,4,7,7-tetramethyl-4,5,6,7-tetrahydro-1,3-benzothiazol-2-yl)amino]pyridine-3-carboxylic acid], for which the “Activity at 1 µM” value is on record as “***** (>1)”.

Take `CC1(C)CCC(C)(C)c2sc(N(CC3CC3)c3ccc(C(=O)O)cc3)nc21` [Compound 38, 4-[(Cyclopropylmethyl) (4,4,7,7-tetramethyl-4,5,6,7-tetrahydro-1,3-benzothiazol-2-yl)amino]benzoic acid]: the “Activity at 1 µM” value is “*** (>0.8 and <0.9)”.

Consider `CCN(c1ccc(C(=O)O)cn1)c1nc2c(s1)C(C)(C)CCC2(C)C` [Compound 39, 6-[Ethyl(4,4,7,7-tetramethyl-4,5,6,7-tetrahydro-1,3-benzothiazol-2-yl)amino]pyridine-3-carboxylic acid], for which the “Activity at 1 µM” value is “***** (>1)”.

`CCN(c1ccc(C(=O)O)cn1)c1nc2c(s1)C(C)(C)CC(=O)C2(C)C` [Compound 41, 6-[Ethyl(4,4,7,7-tetramethyl-5-oxo-4,5,6,7-tetrahydro-1,3-benzothiazol-2-yl)amino]pyridine-3-carboxylic acid]: the “Activity at 1 µM” value is recorded as “* (<0.7)”.

On to `CCN(c1ncc(C(=O)O)cn1)c1nc2c(s1)C(C)(C)CCC2(C)C` [Compound 42, 2-[Ethyl(4,4,7,7-tetramethyl-4,5,6,7-tetrahydro-1,3-benzothiazol-2-yl)amino]pyrimidine-5-carboxylic acid], for which the “Activity at 1 µM” value was “** (>0.7 and <0.8)”.

In the case of `CC1(C)CCC(C)(C)c2sc(N(CC3CC3)c3ncc(C(=O)O)cn3)nc21` [Compound 43, 2-[(Cyclopropylmethyl) (4,4,7,7-tetramethyl-4,5,6,7-tetrahydro-1,3-benzothiazol-2-yl)amino]pyrimidine-5-carboxylic acid], the “Activity at 1 µM” value is recorded as “* (<0.7)”.

With `Cc1nc2cc(C(=O)O)ccc2n1-c1nc2c(s1)C(C)(C)CCC2(C)C` [Compound 44, 2-Methyl-1-(4,4,7,7-tetramethyl-4,5,6,7-tetrahydro-1,3-benzothiazol-2-yl)-1H-benzimidazole-5-carboxylic acid], the “Activity at 1 µM” value was “* (<0.7)”.

As for `CC1(C)CCC(C)(C)c2sc(-n3nnc4cc(C(=O)O)ccc43)nc21` [Compound 45, 1-(4,4,7,7-Tetramethyl-4,5,6,7-tetrahydro-1,3-benzothiazol-2-yl)-1H-benzotriazole-5-carboxylic acid], the “Activity at 1 µM” value is listed as “* (<0.7)”.

With `CC1(C)CCC(C)(C)c2sc(Oc3ccc(C(=O)O)cc3)nc21` [Compound 46, 4-[(4,4,7,7-Tetramethyl-4,5,6,7-tetrahydro-1,3-benzothiazol-2-yl)oxy]benzoic acid], the “Activity at 1 µM” value is given as “* (<0.7)”. In addition, under “compound at 300 nM”, the “Activity at 300 nM” value is “** (>0.3 and <0.4)”.

On to `CC1(C)CCC(C)(C)c2sc(C(=O)c3ccc(C(=O)O)cc3)nc21` [Compound 47, 4-[(4,4,7,7-Tetramethyl-4,5,6,7-tetrahydro-1,3-benzothiazol-2-yl)carbonyl]benzoic acid], for which the “Activity at 1 µM” value was “* (<0.7)”.

In the case of `CC1(C)CCC(C)(C)c2sc(/C=C/c3ccc(C(=O)O)cc3)nc21` [Compound 48, 4-[(E)-2-(4,4,7,7-Tetramethyl-4,5,6,7-tetrahydro-1,3-benzothiazol-2-yl)ethenyl]benzoic acid], the “Activity at 1 µM” value was “* (<0.7)”.

In the case of `CC1(C)CCC(C)(C)c2sc(/C=C\c3ccc(C(=O)O)cc3)nc21` [Compound 49, 4-[(Z)-2-(4,4,7,7-Tetramethyl-4,5,6,7-tetrahydro-1,3-benzothiazol-2-yl)ethenyl]benzoic acid], the “Activity at 1 µM” value is “***** (>1)”.

With `CC1(C)CCC(C)(C)c2sc(/C=C/c3ccc(C(=O)O)cn3)nc21` [Compound 50, 6-[(E)-2-(4,4,7,7-Tetramethyl-4,5,6,7-tetrahydro-1,3-benzothiazol-2-yl)ethenyl]pyridine-3-carboxylic acid], the “Activity at 1 µM” value is listed as “* (<0.7)”.
